Each molecule was assayed against T1, Pfs16 (Plasmodium falciparum, UniProt Q6ZMA7) (assay: CETSA melt curve with immunoblot). Conditions: activated stage V gametocyte lysate, 100 uM compound, 1% Triton X-100, pH 7.5; also isothermal dose response at 78.4 °C.
T1 construct: native full-length protein in stage V gametocytes or their Triton X-100 lysate; 157 residues, 16 kDa, two transmembrane domains
T1 sequence (Q6ZMA7 26-157): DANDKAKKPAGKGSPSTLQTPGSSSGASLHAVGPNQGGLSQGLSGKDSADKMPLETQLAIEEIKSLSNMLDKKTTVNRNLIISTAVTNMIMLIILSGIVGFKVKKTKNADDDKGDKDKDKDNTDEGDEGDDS
Type: biochemical
With `O=S(=O)(NCC1(O)CCOc2ccccc21)c1ccc(Br)s1` (stereo not shown) [DDD01035881] the Tm shift was “DDD01035881 treatment clearly resulted in a positive shift in the Pfs16 melting curve”.

What follows are molecules tested against T1, Pfs16 (assay: photoaffinity labelling, click capture, pulldown, TMT nLC-MS/MS, in-gel fluorescence and immunoblot). Conditions: live stage V gametocytes, 2.5-10 uM, 254 nm UV; covalent after irradiation.
Type: cell-based
With `C#Cc1ccc2c(c1)C(O)(CNS(=O)(=O)c1cccc(N=[N+]=[N-])c1)CCO2` (stereo not shown) [compound 2, probe 2] the “photoaffinity labelling, click capture, pulldown, TMT nLC-MS/MS, in-gel fluoresc” value was “a dose-dependent pulldown of Pfs16 was clearly observed”.

The molecules below were run on T2, P. falciparum NF54 stage V male gametocytes (assay: microbe, parasite or virus in culture). Conditions: Plasmodium falciparum, NF54, male gamete formation.
T2 construct: NF54
Design: male gamete formation assay (DGFA format), inhibition of exflagellation of stage V gametocytes
Description: Yahiya et al. 2021 Supplement Page 26 of 27 345 IC50 determination by male gamete formation assay 346 The male gamete formation assay (MGFA) was adapted from the previously described dual gamete formation assay (DGFA)3 347 to identify male gamete targeted activity. Briefly, compounds 348 were dispensed into 384-well plates using the HP D300 Digital Dispenser in serial dilutions. Single 349 point controls, a DMSO negative control (0.25% final assay volume) and 20 µM DDD01028076 350 positive control, were included across the plate. Maintaining RT, 10 µl ookinete medium was 351 dispensed into each well, followed by addition of 50 µl of stage V NF54 gametocyte culture (day 14 352 post-induction and onwards). […] Plates were then immediately incubated at 4°C 354 for 4 minutes, followed by 28°C for 5 minutes. Table 1. DDD01035881 and derivatives Activity of DDD01035881 and structural analogues as determined in a structure activity relationship study. IC50s depicted represent the inhibition of male gamete viability as determined by the male gamete formation format of the DGFA. Values are expressed as an average ± SEM of 3-8 biological replicates, ≥ 2 technical replicates.[15]
`O=S(=O)(NCC1(O)CCOc2ccccc21)c1ccccc1Br` (stereo not shown) [DDD01028076] was tested, and the IC50 was 0.367 ± 0.06 µM.
With `O=S(=O)(NCC1(O)CCOc2ccccc21)c1ccc(Br)s1` (stereo not shown) [DDD01035881] the IC50 was 0.292 ± 0.076 µM.
`O=S(=O)(NCC1(O)CCOc2ccc(Br)cc21)c1cccc(Br)c1` (stereo not shown) [compound 1, parent molecule 1] was tested, and the IC50 was 0.785 ± 0.048 µM.
With `C#Cc1ccc2c(c1)C(O)(CNS(=O)(=O)c1cccc(N=[N+]=[N-])c1)CCO2` (stereo not shown) [compound 2, probe 2] the IC50 was 3.98 ± 0.211 µM.
`C#Cc1ccc2c(c1)C(O)(CNS(=O)(=O)c1cccc(Br)c1)CCO2` (stereo not shown) [compound 3, 3] showed an IC50 of 0.37 ± 0.079 µM.
With `C#Cc1cccc(S(=O)(=O)NCC2(O)CCOc3ccccc32)c1` (stereo not shown) [compound 4, 4] the IC50 was over 1 µM.
With `C#Cc1ccc2c(c1)C(O)(CN(CCC1(C)N=N1)S(=O)(=O)c1cccc(Br)c1)CCO2` (stereo not shown) [compound 5, 5] the IC50 was over 25 µM.
With `O=S(=O)(NCC1(O)CCOc2ccc(O)cc21)c1cccc(Br)c1` (stereo not shown) [compound 6, 6] the IC50 was over 11 µM.
With `C=CCOc1ccc2c(c1)C(O)(CNS(=O)(=O)c1cccc(Br)c1)CCO2` (stereo not shown) [compound 7, 7] the IC50 was over 25 µM.
With `CCCCn1cc(-c2ccc3c(c2)C(O)(CNS(=O)(=O)c2cccc(Br)c2)CCO3)nn1` (stereo not shown) [compound 9, 9] the IC50 was over 25 µM.
Work on `CN(CC1(O)CCOc2ccccc21)S(=O)(=O)c1cccc(Br)c1` (stereo not shown) [compound 10, 10] yielded an IC50 of over 10 µM.
